Type in all cases: cell-based
The target of experiment [1] is T1, mPanx1 (Mus musculus, UniProt Q9JIP4).
T1 construct: gene Panx1
The experiment in a line: whole-cell patch clamp, CHO cells transfected with mPanx1, single dose […]. The conditions noted are these: read-out: I% ^a. Background: In patch-clamp work, channel activity is measured electrically.

Experiment [2] addresses T1, mPanx1. As to the kind of experiment: whole-cell patch clamp, CHO cells transfected with mPanx1, dose-response.
Experiment [3] deals with T1, mPanx1. The experiment in a line: whole-cell patch clamp, CHO cells transfected with mPanx1, dose-response (IC50 low micromolar, number not given). The conditions noted are these: read-out: I% ^a.

In general, IC50 refers to the concentration needed to halve the response being measured. A high value points to a need for much substance.

T1 sequence (Q9JIP4 whole entry): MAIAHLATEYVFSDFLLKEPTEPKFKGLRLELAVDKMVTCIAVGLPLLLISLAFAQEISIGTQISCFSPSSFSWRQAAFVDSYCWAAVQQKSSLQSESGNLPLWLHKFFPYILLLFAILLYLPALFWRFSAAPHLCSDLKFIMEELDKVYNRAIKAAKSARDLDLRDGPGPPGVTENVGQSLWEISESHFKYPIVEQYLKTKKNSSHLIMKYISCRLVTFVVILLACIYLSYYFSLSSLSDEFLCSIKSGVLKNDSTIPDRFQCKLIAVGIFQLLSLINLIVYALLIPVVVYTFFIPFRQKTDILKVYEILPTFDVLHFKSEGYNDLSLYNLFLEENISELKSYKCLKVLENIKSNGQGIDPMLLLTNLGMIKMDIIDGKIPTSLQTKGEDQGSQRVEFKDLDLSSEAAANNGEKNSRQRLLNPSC

On to `CCN(CC)S(=O)(=O)c1ccc2c(c1)c(=O)c(C(=O)O)cn2Cc1ccccc1` [12a, 1-Benzyl-6-(N,N-diethylsulfamoyl)-4-oxo-1,4-dihydroquinoline-3-carboxylic acid], for which the inhibition at 50 µM on mPanx1 [1] worked out at 54.6 ± 6%.
On the same count and under the same terms, the same measure for `CCN(CC)S(=O)(=O)c1ccc2c(c1)c(=O)c(C(=O)O)cn2Cc1ccc(C(=O)O)cc1` [12b, 1-(4-Carboxybenzyl)-6-(N,N-diethylsulfamoyl)-4-oxo-1,4-dihydroquinoline-3-carboxylic acid]: 73.2 ± 11.9%; for `NS(=O)(=O)c1ccc2c(c1)c(=O)c(C(=O)O)cn2Cc1ccc(C(=O)O)cc1` [5b, 1-(4-Carboxybenzyl)-4-oxo-6-sulfamoyl-1,4-dihydroquinoline-3-carboxylic acid]: 48.8 ± 5.9%.
For `CCCN(CCC)S(=O)(=O)c1ccc2c(c1)c(=O)c(C(=O)O)cn2Cc1ccc(S(N)(=O)=O)cc1` [12f, 6-(N,N-Dipropylsulfamoyl)-4-oxo-1-(4-sulfamoylbenzyl)-1,4-dihydroquinoline-3-carboxylic acid], the concentration for half-maximal inhibition (IC50) against mPanx1 [2] was 2.7 µM.
With `O=C(O)c1ccc(CN(Cc2ccc(C(=O)O)cc2)S(=O)(=O)c2ccc3c(c2)c(=O)c(C(=O)O)cn3Cc2ccc(C(=O)O)cc2)cc1` [compound 7, 4,4′-{[((3-carboxy-1-(4-carboxybenzyl)-4-oxo-1,4-dihydroquinolin-6-yl)sulfonyl)azanediyl]bis(methylene)} dibenzoic acid], at mPanx1 [3], the inhibition at 50 µM was determined as 79.7 ± 7.2%.
Consider `CCCN(CCC)S(=O)(=O)c1ccc2c(c1)c(=O)c(C(=O)O)cn2CCc1ccccc1` [12g, 6-(N,N-Dipropylsulfamoyl)-4-oxo-1-phenethyl-1,4-dihydroquinoline-3-carboxylic acid], for which the inhibition at 50 µM at mPanx1 [1] worked out at 57.2 ± 8.5%.
Consider `CCCN(CCC)S(=O)(=O)c1ccc2c(c1)c(=O)c(C(=O)O)cn2Cc1ccc(C(=O)O)cc1` [12e, 1-(4-Carboxybenzyl)-6-(N,N-dipropylsulfamoyl)-4-oxo-1,4-dihydroquinoline-3-carboxylic acid], for which the inhibition at 50 µM at mPanx1 [3] is 84.8 ± 4.4%.
`CCN(CC)S(=O)(=O)c1ccc2c(c1)c(=O)c(C(=O)O)cn2Cc1ccc(S(N)(=O)=O)cc1` [12c, 6-(N,N-Diethylsulfamoyl)-4-oxo-1-(4-sulfamoylbenzyl)-1,4-dihydroquinoline-3-carboxylic acid]: the inhibition at 50 µM at mPanx1 [1] is 49.5 ± 6%.

(Values after article PMC12114274, “Synthesis of 3-Carboxy-6-sulfamoylquinolones and Mefloquine-Based Compounds as Panx1 Blockers: Molecular Docking, Electrophysiological and Cell Culture Studies” (Molecules, 2025).)
